# Biological target: T1, JAK3 (recombinant human kinase domain; h-jak3(810-1124)) (Homo sapiens, UniProt P52333)
# T1 construct: h-jak3(810- 1124)-sf9-c; made in house; host or cells: Sf9 insect cells
# Assay: Determination of IC50 of Janus Kinase (JAK) inhibition: JAK3, radioactive end-point assay with 33P-ATP
# Type: biochemical
# Conditions: not given
# T1 sequence (P52333 810-1124): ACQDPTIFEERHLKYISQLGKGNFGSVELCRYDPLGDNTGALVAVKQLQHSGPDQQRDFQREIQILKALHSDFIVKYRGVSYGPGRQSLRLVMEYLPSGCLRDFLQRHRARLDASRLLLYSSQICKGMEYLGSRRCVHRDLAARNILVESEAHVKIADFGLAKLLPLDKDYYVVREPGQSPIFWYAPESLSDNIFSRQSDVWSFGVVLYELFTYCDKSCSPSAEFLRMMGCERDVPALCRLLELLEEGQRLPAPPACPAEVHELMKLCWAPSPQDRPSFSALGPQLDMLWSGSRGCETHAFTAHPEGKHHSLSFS
row,IC50 [nM],Structure (SMILES)
1,157,"CC(C)NC(=O)c1c[nH]c2ncc(Oc3ccc4c(c3)C=CC4)nc12 [Example I-302, 2-(1H-Inden-5-yloxy)-5H-pyrrolo[2,3-b]pyrazine-7-carboxylic acid isopropylamide]"

# Same assay, conditions: JAK3 kinase domain; ATP 1.5 uM, peptide 50 uM, 20 minutes, room temperature, 10% DMSO; read-out: Ic50 h-jak3(810-1124)-sf9-c:no additive
row,Structure (SMILES),IC50 [nM]
1,"C[C@H](NC(=O)c1c[nH]c2ncc(-c3ccc(C(=O)N4CCCCC4)s3)nc12)C(C)(C)C#N [Example I-224, 2-[5-(Piperidine-1-carbonyl)-thiophen-2-yl]-5H-pyrrolo[2,3-b]pyrazine-7-carboxylic acid ((S)-2-cyano-1,2,2-trimethyl-ethyl)-amide]",0.36
2,"C[C@@H](NC(=O)c1c[nH]c2ncc(Oc3ccccc3)nc12)C(C)(C)O [Example I-116, 2-Phenoxy-5H-pyrrolo[2,3-b]pyrazine-7-carboxylic acid ((R)-2-hydroxy-1,2-dimethyl-propyl)-amide]",682
3,"CCCC[C@H](NC(=O)c1c[nH]c2ncc(C3CC3)nc12)C(C)(C)O [Example I-49, 2-Cyclopropyl-5H-pyrrolo[2,3-b]pyrazine-7-carboxylic acid [(S)-1-(1-hydroxy-1-methyl-ethyl)-pentyl]-amide]",453
4,"C[C@H](NC(=O)c1c[nH]c2ncc(-c3cnn(C)c3)nc12)C(C)(C)C#N [Example I-139, 2-(1-Methyl-1H-pyrazol-4-yl)-5H-pyrrolo[2,3-b]pyrazine-7-carboxylic acid ((S)-2-cyano-1,2,2-trimethyl-ethyl)-amide]",0.55
5,"C[C@H](NC(=O)c1c[nH]c2ncc(C3CC3)nc12)[C@](C)(O)CC1CC1 [Example I-48, 2-Cyclopropyl-5H-pyrrolo[2,3-b]pyrazine-7-carboxylic acid ((1S,2R)-3-cyclopropyl-2-hydroxy-1,2-dimethyl-propyl)-amide]",116
6,"C[C@H](NC(=O)c1c[nH]c2ncc(-c3cccs3)nc12)C(C)(C)C [Example I-142, 2-Thiophen-2-yl-5H-pyrrolo[2,3-b]pyrazine-7-carboxylic acid ((S)-1,2,2-trimethyl-propyl)-amide]",0.18
7,"CC(C)NC(=O)c1c[nH]c2ncc(Oc3ccc4c(c3)C(O)CC4)nc12 (stereo not drawn) [Example I-293, 2-(3-Hydroxy-indan-5-yloxy)-5H-pyrrolo[2,3-b]pyrazine-7-carboxylic acid isopropylamide]",162
8,"CC(C)NC(=O)c1c[nH]c2ncc(Oc3cccc4[nH]ccc34)nc12 [Example I-274, 2-(1H-Indol-4-yloxy)-5H-pyrrolo[2,3-b]pyrazine-7-carboxylic acid isopropylamide]",353
9,"CCNC(=O)c1c[nH]c2ncc(Oc3cccc(C(F)(F)F)c3)nc12 [Example I-251, 2-(3-Trifluoromethyl-phenoxy)-5H-pyrrolo[2,3-b]pyrazine-7-carboxylic acid ethylamide]",4030
10,"C[C@@H](NC(=O)c1c[nH]c2ncc(C3CC3)nc12)C1(C#N)CCCC1 [Example I-100, 2-Cyclopropyl-5H-pyrrolo[2,3-b]pyrazine-7-carboxylic acid [(R)-1-(1-cyano-cyclopentyl)-ethyl]-amide]",38.5
11,"CC(NC(=O)c1c[nH]c2ncc(Oc3ccccc3F)nc12)C1CC1 (stereo not drawn) [Example I-114, 2-(2-Fluoro-phenoxy)-5H-pyrrolo[2,3-b]pyrazine-7-carboxylic acid (1-cyclopropyl-ethyl)-amide]",63.4
12,"CC(C)NC(=O)c1c[nH]c2ncc(Oc3cccc4c3CCCC4)nc12 [Example I-239, 2-(5,6,7,8-Tetrahydro-naphthalen-1-yloxy)-5H-pyrrolo[2,3-b]pyrazine-7-carboxylic acid isopropylamide]",5200
13,"CC[C@@H](NC(=O)c1c[nH]c2ncc(C3CC3)nc12)C(C)(C)O [Example I-44, 2-Cyclopropyl-5H-pyrrolo[2,3-b]pyrazine-7-carboxylic acid ((R)-1-ethyl-2-hydroxy-2-methyl-propyl)-amide]",46
14,"CCNC(=O)c1c[nH]c2ncc(Oc3cc(OC)cc(OC)c3)nc12 [Example I-263, 2-(3,5-Dimethoxy-phenoxy)-5H-pyrrolo[2,3-b]pyrazine-7-carboxylic acid ethylamide]",2350
15,"C#CCNC(=O)c1ccc(-c2cnc3[nH]cc(C(=O)N[C@@H](C)C(C)(C)C)c3n2)s1 [Example I-198, 2-(5-Prop-2-ynylcarbamoyl-thiophen-2-yl)-5H-pyrrolo[2,3-b]pyrazine-7-carboxylic acid ((S)-1,2,2-trimethyl-propyl)-amide]",0.54
16,"CCN(CC)C(=O)c1ccc(-c2cnc3[nH]cc(C(=O)N[C@@H](C)C(C)(C)C)c3n2)s1 [Example I-160, 2-(5-Diethylcarbamoyl-thiophen-2-yl)-5H-pyrrolo[2,3-b]pyrazine-7-carboxylic acid ((S)-1,2,2-trimethyl-propyl)-amide]",0.32
17,"CCNC(=O)c1c[nH]c2ncc(Oc3cccc(OC(F)(F)F)c3)nc12 [Example I-246, 2-(3-Trifluoromethoxy-phenoxy)-5H-pyrrolo[2,3-b]pyrazine-7-carboxylic acid ethylamide]",3460
18,"CNC(=O)N[C@@H]1CCc2ccc(Oc3cnc4[nH]cc(C(=O)NC(C)C)c4n3)cc21 [Example I-292, 2-[(R)-3-(3-Methyl-ureido)-indan-5-yloxy]-5H-pyrrolo[2,3-b]pyrazine-7-carboxylic acid isopropylamide]",91.7
19,"CC(C)NC(=O)c1c[nH]c2ncc(Oc3ccc4c(c3)[C@@H](N)CC4)nc12 [Example I-289, 2-((S)-3-Amino-indan-5-yloxy)-5H-pyrrolo[2,3-b]pyrazine-7-carboxylic acid isopropylamide]",533
20,"C[C@@H](NC(=O)c1c[nH]c2ncc(C3CC3)nc12)C1(C#N)CCCCC1 [Example I-117, 2-Cyclopropyl-5H-pyrrolo[2,3-b]pyrazine-7-carboxylic acid [(R)-1-(1-cyano-cyclohexyl)-ethyl]-amide]",26.8
21,"C[C@H](NC(=O)c1c[nH]c2ncc(-c3ccc(C(=O)N4CCN(C)CC4)s3)nc12)C(C)(C)C [Example I-161, 2-[5-(4-Methyl-piperazine-1-carbonyl)-thiophen-2-yl]-5H-pyrrolo[2,3-b]pyrazine-7-carboxylic acid ((S)-1,2,2-trimethyl-propyl)-amide]",0.32
22,"CC(C)(O)C(NC(=O)c1c[nH]c2ncc(C3CC3)nc12)C(F)(F)F (stereo not drawn) [Example I-93, 2-Cyclopropyl-5H-pyrrolo[2,3-b]pyrazine-7-carboxylic acid (2-hydroxy-2-methyl-1-trifluoromethyl-propyl)-amide]",57.8
23,"CC[C@@](C)(O)[C@@H](C)NC(=O)c1c[nH]c2ncc(C3CC3)nc12 [Example I-83, 2-Cyclopropyl-5H-pyrrolo[2,3-b]pyrazine-7-carboxylic acid ((1R,2R)-2-hydroxy-1,2-dimethyl-butyl)-amide]",47.2

# The next lines start with the values.
row,IC50 [nM],Structure (SMILES)
1,459,CNC(=O)CNc1cnc2[nH]cc(C(=O)NCC(C)(C)CO)c2n1 [Example I-16]
2,5.9,"CC[C@H](C)NC(=O)c1c[nH]c2ncc(C3CC3)nc12 [Example I-22, 2-Cyclopropyl-5H-pyrrolo[2,3-b]pyrazine-7-carboxylic acid ((S)-sec-butyl)-amide]"
3,0.73,"C[C@H](NC(=O)c1c[nH]c2ncc(-c3ccc(C(=O)NCc4cccc(C(F)(F)F)c4)s3)nc12)C(C)(C)C [Example I-207, 2-[5-(3-Trifluoromethyl-benzylcarbamoyl)-thiophen-2-yl]-5H-pyrrolo[2,3-b]pyrazine-7-carboxylic acid ((S)-1,2,2-trimethyl-propyl)-amide]"
4,502,"C[C@H](NC(=O)c1c[nH]c2ncc(Oc3ccc(F)cc3F)nc12)C(C)(C)O [Example I-125, 2-(2,4-Difluoro-phenoxy)-5H-pyrrolo[2,3-b]pyrazine-7-carboxylic acid ((S)-2-hydroxy-1,2-dimethyl-propyl)-amide]"
5,2960,"CC(C)NC(=O)c1c[nH]c2ncc(Oc3ccccc3C(F)(F)F)nc12 [Example I-236, 2-(2-Trifluoromethyl-phenoxy)-5H-pyrrolo[2,3-b]pyrazine-7-carboxylic acid isopropylamide]"
6,27.1,"CC(C)(O)[C@H](NC(=O)c1c[nH]c2ncc(C3CC3)nc12)C1CC1 [Example I-74, 2-Cyclopropyl-5H-pyrrolo[2,3-b]pyrazine-7-carboxylic acid ((R)-1-cyclopropyl-2-hydroxy-2-methyl-propyl)-amide]"
7,5.01,"CCn1cc(-c2cnc3[nH]cc(C(=O)N[C@@H](C)C4(O)CCCC4)c3n2)cn1 [Example I-138, 2-(1-Ethyl-1H-pyrazol-4-yl)-5H-pyrrolo[2,3-b]pyrazine-7-carboxylic acid [(S)-1-(1-hydroxy-cyclopentyl)-ethyl]-amide]"
8,0.18,"C[C@H](NC(=O)c1c[nH]c2ncc(-c3ccc(C(=O)NCCC(F)(F)F)s3)nc12)C(C)(C)C [Example I-216, 2-[5-(3,3,3-Trifluoro-propylcarbamoyl)-thiophen-2-yl]-5H-pyrrolo[2,3-b]pyrazine-7-carboxylic acid ((S)-1,2,2-trimethyl-propyl)-amide]"
9,18,"C[C@H](NC(=O)c1c[nH]c2ncc(C3CC3)nc12)C1(O)CCCC1 [Example I-97, 2-Cyclopropyl-5H-pyrrolo[2,3-b]pyrazine-7-carboxylic acid [(S)-1-(1-hydroxy-cyclopentyl)-ethyl]-amide]"
10,0.57,"C[C@H](NC(=O)c1c[nH]c2ncc(-c3ccc(C(=O)Nc4ccccc4)s3)nc12)C(C)(C)C [Example I-201, 2-(5-Phenylcarbamoyl-thiophen-2-yl)-5H-pyrrolo[2,3-b]pyrazine-7-carboxylic acid ((S)-1,2,2-trimethyl-propyl)-amide]"
11,68.7,"CCC(NC(=O)c1c[nH]c2ncc(C3CC3)nc12)C1CCCCC1 (stereo not drawn) [Example I-75, 2-Cyclopropyl-5H-pyrrolo[2,3-b]pyrazine-7-carboxylic acid (1-cyclohexyl-propyl)-amide]"
12,37,"CC(=O)N[C@@H]1CCc2cc(Oc3cnc4[nH]cc(C(=O)N[C@@H](C)C(C)(C)C)c4n3)ccc21 [Example I-291, 2-((R)-1-Acetylamino-indan-5-yloxy)-5H-pyrrolo[2,3-b]pyrazine-7-carboxylic acid ((S)-1,2,2-trimethyl-propyl)-amide]"
